Reference: US11141410B2 (MERCK SHARP & DOHME CORP., priority 2015, dated 2021)

What was measured:
MRSA COL (MB5393) [1] = assay: TarO Inhibitor/β-Lactam Synergy Assay (growth, OD600); type: cell-based, Staphylococcus aureus; conditions: for MITC95 TarO inhibitor + 4 μg/mL IPM; Bacteria: SA_MB5393: in combination with 4 μg/mL imipenem (IPM); for MITC95 TarO inhibitor + 8 μg/mL DCX; Bacteria: SA_MB5393: in combination with 8 μg/mL dicloxacillin (DCX)
Experimental: The TarO inhibitor/β-lactam synergy assay was performed to measure the re-sensitization of methicillin-resistant Staphylococci bacteria (MB5393: MRSA COL) to β-lactam antibiotics by TarO inhibitors. MRSA COL is a hospital-acquired penicillinase-negative clinically isolated strain commonly used in Staphylococcus aureus studies and is fully resistant to the antimicrobial bioactivity of β-lactam antibiotics, including but not limited to imipenem and dicloxacillin. […] MRSA COL is fully refractory to β-lactam antibiotic effect at the current clinical breakpoint concentrations and as such MRSA COL is fully viable at these concentrations.
The β-lactam antibiotic concentration was fixed at the clinical breakpoint (imipenem 4 μg/ml or dicloxacillin 8 μg/ml) and the TarO inhibitors were titrated by 2 fold starting from the highest concentration of 200 μM with final DMSO concentration of 2% in the assay. 5×10^5 colony forming unit of MRSA COL in cation-adjusted Mueller Hinton broth (CAMHB) was then mixed and the assay plate was incubated for 20 hours at 37° C. without shaking. After 20 hours, the optical density at 600 nm (OD600) was read for all wells to determine relative growth of MRSA COL.

MRSA COL (MB5393) [2] = assay: as above; type: cell-based; conditions: Staphylococcus aureus, TarO inhibitor alone, >200 μM = 95% growth inhibition not achieved, 20 hours at 37° C., read-out: MITC95 TarO inhibitor alone, Bacteria: SA_MB5393

Row | Compound | MITC95 TarO inhibitor + 4 μg/mL IPM; Bacteria: SA_MB5393 (MRSA COL (MB5393) [1]) [µM] | MITC95 TarO inhibitor + 8 μg/mL DCX; Bacteria: SA_MB5393 (MRSA COL (MB5393) [1]) [µM] | IC95 (MRSA COL (MB5393) [2]) [µM]
1 | C[C@H]1[C@@H](c2cc(F)cc(C(F)(F)F)c2)OC(=O)N1C(=O)NCc1cccc2cn[nH]c12 [Example 39, (4S,5R)-5-[3-fluoro-5-(trifluoromethyl)phenyl]-N-(1H-indazol-7-ylmethyl)-4-methyl-2-oxo-1,3-oxazolidine-3-carboxamide] | 0.78 | 25 | > 200
2 | Cc1nn(C)c(C)c1CNC(=O)N1C(=O)O[C@H](c2cc(F)cc(C(F)(F)F)c2)[C@@H]1C [Example 29, (4S,5R)-5-[3-fluoro-5-(trifluoromethyl)phenyl]-4-methyl-2-oxo-N-[(1,3,5-trimethyl-1H-pyrazol-4-yl)methyl]-1,3-oxazolidine-3-carboxamide] | 0.78 | 5.21 | > 200
3 | Cc1cc(C)cc([C@H]2OC(=O)N(C(=O)CCc3cncc4ccccc34)[C@H]2C)c1 [Example 77, (4S,5R)-5-(3,5-dimethylphenyl)-3-(3-isoquinolin-4-ylpropanoyl)-4-methyl-1,3-oxazolidin-2-one] | 0.63 | 5.21 | > 200
4 | O=C(NCc1cccc2cncnc12)N1C(=O)O[C@H](c2cc(C(F)(F)F)cc(C(F)(F)F)c2)[C@@H]1CO [Example 54, (4S,5R)-5-[3,5-bis(trifluoromethyl)phenyl]-4-(hydroxymethyl)-2-oxo-N-(quinazolin-8-yl-methyl)-1,3-oxazolidine-3-carboxamide] | 0.20 | 0.65 | > 200
5 | C[C@H]1[C@@H](c2cccc(Br)n2)OC(=O)N1C(=O)CCc1cccc2ccccc12 [Example 84, (4S,5S)-5-(6-bromopyridin-2-yl)-4-methyl-3-(3-naphthalen-1-ylpropanoyl)-1,3-oxazolidin-2-one] | 1.56 | 100 | > 200
6 | C[C@H]1[C@@H](c2cc(F)cc(C(F)(F)F)c2)OC(=O)N1C(=O)NCc1cnc2sccn12 [Example 47, (4S,5R)-5-[3-fluoro-5-(trifluoromethyl)phenyl]-N-(imidazo[2,1-b][1,3]thiazol-5-ylmethyl)-4-methyl-2-oxo-1,3-oxazolidine-3-carboxamide] | 62 | 50 | > 200
7 | C[C@H]1[C@@H](c2cc(F)cc(C(F)(F)F)c2)OC(=O)N1C(=O)NCc1cccc2ccccc12 [Example 6, (4S,5R)-5-[3-fluoro-5-(trifluoromethyl)phenyl]-4-methyl-N-(naphthalen-1-ylmethyl)-2-oxo-1,3-oxazolidine-3-carboxamide] | 0.01 | 0.02 | > 200
8 | C[C@H]1[C@@H](c2cc(F)cc(C(F)(F)F)c2)OC(=O)N1C(=O)NCc1cccc2c1C(=O)NC2 [Example 40] | 18.75 | 50 | > 200
9 | C[C@H]1[C@@H](c2cc(C(F)(F)F)cc(C(F)(F)F)c2)OC(=O)N1C(=O)CCc1cccc2ccccc12 [Example 67, (4S,5R)-5-[3,5-bis(trifluoromethyl)phenyl]-4-methyl-3-(3-naphthalen-1-ylpropanoyl)-1,3-oxazolidin-2-one] | 0.01 | – | > 200
10 | COc1ccccc1CNC(=O)N1C(=O)O[C@H](c2cc(F)cc(C(F)(F)F)c2)[C@@H]1C [Example 8, (4S,5R)-5-[3-fluoro-5-(trifluoromethyl)phenyl]-N-(2-methoxybenzyl)-4-methyl-2-oxo-1,3-oxazolidine-3-carboxamide] | 0.13 | 1.32 | > 200
11 | C[C@H]1[C@@H](c2cc(C(F)(F)F)cc(C(F)(F)F)c2)OC(=O)N1C(=O)CCc1cccc2ccncc12 [Example 75, (4S,5R)-5-[3,5-bis(trifluoromethyl)phenyl]-3-(3-isoquinolin-8-ylpropanoyl)-4-methyl-1,3-oxazolidin-2-one] | 0.13 | 0.78 | > 200
